Read-outs that look alike come from different tables or passages of the source.
Molecular target: T1, cloned human dopamine D3 receptors (Homo sapiens, UniProt P35462)
T1 construct: expressed in transfected cells; membrane homogenate
Test: [N-Methyl-3H]Spiroperidol binding to cloned human dopamine D3 receptors (Protocol 1)
Procedure, shortened: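 Radioligand displacement with [N-methyl-3H]spiroperidol used a physiological-salt Tris buffer (0.05 M, pH 7.7; NaCl 120 mM, KCl 5 mM, CaCl2 2 mM, MgCl2 1 mM) and membranes of a high-expressing stable CHO clone carrying human D3. Total ligand concentration came from measured added CPM; 0.1% ascorbic acid was optional for oxidizable compounds.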

[1] = the 21st table, read-out: D3 Ki
[2] = the 16th table, read-out: D3 Ki
[3] = the 22nd table, read-out: D3 Ki

T1 sequence (P35462 whole entry): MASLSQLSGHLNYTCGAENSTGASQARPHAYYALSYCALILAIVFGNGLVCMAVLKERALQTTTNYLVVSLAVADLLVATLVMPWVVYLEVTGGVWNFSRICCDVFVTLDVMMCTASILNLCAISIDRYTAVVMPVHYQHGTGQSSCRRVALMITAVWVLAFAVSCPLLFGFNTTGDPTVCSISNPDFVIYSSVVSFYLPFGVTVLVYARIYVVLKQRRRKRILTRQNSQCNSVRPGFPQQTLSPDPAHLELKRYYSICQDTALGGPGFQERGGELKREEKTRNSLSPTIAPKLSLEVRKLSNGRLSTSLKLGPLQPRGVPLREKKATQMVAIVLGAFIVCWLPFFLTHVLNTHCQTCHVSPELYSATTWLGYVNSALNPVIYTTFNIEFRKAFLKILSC

Row | Compound | Ki (Table 2, read-out: D3K1) [nM] | Ki [2] [nM] | further results
1 | COc1cc(OC)cc(C(=O)NCCCCN2[C@H](C)CN(c3csc4cc(F)ccc34)C[C@@H]2C)c1 [compound 827048] |  |  | Ki [1]: 317 nM
2 | C[C@@H]1CN(c2csc3cc(F)ccc23)C[C@H](C)N1CCCCNC(=O)c1ccc(OC(F)(F)F)cc1 [compound 827049] |  |  | Ki [1]: 50.9 nM
3 | C[C@@H]1CN(c2csc3cc(F)ccc23)C[C@H](C)N1CCCCNC(=O)c1cccc2ccccc12 [compound 827050] |  |  | Ki [1]: 186 nM
4 | C[C@@H]1CN(c2csc3cc(F)ccc23)C[C@H](C)N1CCCCNC(=O)c1ccc2ccccc2c1 [compound 827051] |  |  | Ki [1]: 29.5 nM
5 | C[C@@H]1CN(c2csc3cc(F)ccc23)C[C@H](C)N1CCCCNC(=O)c1cccc(C(F)(F)F)c1 [compound 827052] |  |  | Ki [1]: 153 nM
6 | C[C@@H]1CN(c2csc3cc(F)ccc23)C[C@H](C)N1CCCCNC(=O)c1cccc(F)c1 [compound 827053] |  |  | Ki [1]: 53.9 nM
7 | C[C@@H]1CN(c2csc3cc(F)ccc23)C[C@H](C)N1CCCCNC(=O)c1cc2ccccc2s1 [compound 827054] |  |  | Ki [1]: 43.5 nM
8 | O=C(NCCCCN1CCCN(c2csc3cc(F)ccc23)CC1)c1cc2cccc(F)c2o1 [compound 827120] | 32.9 | 32.9 | 
9 | COc1cccc2cc(C(=O)NCCCCN3CCCN(c4csc5cc(F)ccc45)CC3)oc12 [compound 827121] | 21.6 | 21.6 | 
10 | COc1ccc2cc(C(=O)NCCCCN3CCCN(c4csc5cc(F)ccc45)CC3)oc2c1 [compound 827122] | 6.06 | 6.06 | 
11 | CCN(CC)c1ccc2cc(C(=O)NCCCCN3CCCN(c4csc5cc(F)ccc45)CC3)oc2c1 [compound 827123] | 107 | 107 | 
12 | O=C(NCCCCN1CCCN(c2csc3cc(F)ccc23)CC1)c1cc2c(Cl)cc(Cl)cc2o1 [compound 827124] | 16.6 | 16.6 | 
13 | COc1cc(Br)cc2cc(C(=O)NCCCCN3CCCN(c4csc5cc(F)ccc45)CC3)oc12 [compound 827125] | 28.3 | 28.3 | 
14 | O=C(NCCCCN1CCCN(c2csc3cc(F)ccc23)CC1)c1cc2cc(OC(F)(F)F)ccc2o1 [compound 827127] | 74.3 | 74.3 | 
15 | COc1cccc2oc(C(=O)NCCCCN3CCCN(c4csc5cc(F)ccc45)CC3)cc12 [compound 827128] | 19.1 | 19.1 | 
16 | Cc1ccc2oc(C(=O)NCCCCN3CCCN(c4csc5cc(F)ccc45)CC3)cc2c1 [compound 827129] | 7.75 | 7.75 | 
17 | Cc1ccc2cc(C(=O)NCCCCN3CCCN(c4csc5cc(F)ccc45)CC3)oc2c1 [compound 827130] | 15.4 | 15.4 | 
18 | COc1cc(C)c2cc(C(=O)NCCCCN3CCCN(c4csc5cc(F)ccc45)CC3)oc2c1OC [compound 827131] | 4.18 | 4.18 | 
19 | CC(C)(C)c1cc(C(C)(C)C)c2oc(C(=O)NCCCCN3CCCN(c4csc5cc(F)ccc45)CC3)cc2c1 [compound 827132] | 129 | 129 | 
20 | CCOc1cccc2cc(C(=O)NCCCCN3CCCN(c4csc5cc(F)ccc45)CC3)oc12 [compound 827133] | 12.6 | 12.6 | 
21 | O=C(NCCCN1CCCN(c2csc3cc(F)ccc23)CC1)c1cccs1 [compound 827134] | 62 | 62 | 
22 | O=C(NCCCN1CCCN(c2csc3cc(F)ccc23)CC1)c1cccc(Cl)c1 [compound 827135] | 141 | 141 | 
23 | COc1cc(OC)cc(C(=O)NCCCN2CCCN(c3csc4cc(F)ccc34)CC2)c1 [compound 827136] | 268 | 268 | 

Row | Compound | Ki (Table 2, read-out: D3K1) [nM] | Ki [2] [nM] | further results
24 | O=C(NCCCN1CCCN(c2csc3cc(F)ccc23)CC1)c1cccc2ccccc12 [compound 827138] | 166 | 166 | 
25 | O=C(NCCCN1CCCN(c2csc3cc(F)ccc23)CC1)c1ccc2ccccc2c1 [compound 827139] | 131 | 131 | 
26 | COc1ccccc1C(=O)NCCCN1CCCN(c2csc3cc(F)ccc23)CC1 [compound 827141] | 99 | 99 | 
27 | O=C(NCCCN1CCCN(c2csc3cc(F)ccc23)CC1)c1cccc(F)c1 [compound 827142] | 101 | 101 | 
28 | O=C(NCCCN1CCCN(c2csc3cc(F)ccc23)CC1)c1cc2ccccc2s1 [compound 827143] | 123 | 123 | 
29 | O=C(NCCCCCN1CCCN(c2csc3cc(F)ccc23)CC1)c1cc(-c2ccco2)nc2ccccc12 [compound 827159] | 5.85 | 5.85 | 
30 | CC1=C(C(=O)NCCCCN2[C@H](C)CN(c3csc4cc(F)ccc34)C[C@@H]2C)Cc2ccccc21 [compound 827255] |  |  | Ki [1]: 53.7 nM
31 | O=C(NC/C=C\CN1CCN(c2csc3cc(C(F)(F)F)ccc23)CC1)c1cc2ccccc2s1 [compound 827709] |  |  | Ki (read-out: D3K1): 28 nM
32 | O=C(NC/C=C/CN1CCN(c2csc3cc(C(F)(F)F)ccc23)CC1)c1ccsc1 [compound 827710] |  |  | Ki (read-out: D3K1): 31 nM
33 | O=C(NC/C=C/CN1CCN(c2csc3cc(C(F)(F)F)ccc23)CC1)C1CCC1 [compound 827711] |  |  | Ki (read-out: D3K1): 230 nM
34 | O=C(NC/C=C/CN1CCN(c2csc3cc(C(F)(F)F)ccc23)CC1)C1CCCC1 [compound 827712] |  |  | Ki (read-out: D3K1): 66 nM
35 | O=C(NC/C=C/CN1CCN(c2csc3cc(C(F)(F)F)ccc23)CC1)c1ccccn1 [compound 827713] |  |  | Ki (read-out: D3K1): 65 nM
36 | O=C(NC/C=C/CN1CCN(c2csc3cc(C(F)(F)F)ccc23)CC1)c1cccnc1 [compound 827714] |  |  | Ki (read-out: D3K1): 43 nM
37 | O=C(NC/C=C/CN1CCN(c2csc3cc(C(F)(F)F)ccc23)CC1)c1ccccc1 [compound 827715] |  |  | Ki (read-out: D3K1): 24 nM
38 | O=C(NC/C=C/CN1CCN(c2csc3cc(C(F)(F)F)ccc23)CC1)c1cc(F)cc(F)c1 [compound 827716] |  |  | Ki (read-out: D3K1): 98 nM
39 | O=C(NC/C=C/CN1CCN(c2csc3cc(C(F)(F)F)ccc23)CC1)C1CCCCC1 [compound 827717] |  |  | Ki (read-out: D3K1): 9.5 nM
40 | O=C(NC/C=C/CN1CCN(c2csc3cc(C(F)(F)F)ccc23)CC1)c1cccc(Cl)c1 [compound 827718] |  |  | Ki (read-out: D3K1): 150 nM
41 | O=C(NC/C=C/CN1CCN(c2csc3cc(C(F)(F)F)ccc23)CC1)c1ccc(F)cc1 [compound 827719] |  |  | Ki (read-out: D3K1): 51 nM
42 | O=C(NC/C=C/CN1CCN(c2csc3cc(C(F)(F)F)ccc23)CC1)c1cccc(F)c1 [compound 827720] |  |  | Ki (read-out: D3K1): 86 nM
43 | N#Cc1cccc(C(=O)NC/C=C/CN2CCN(c3csc4cc(C(F)(F)F)ccc34)CC2)c1 [compound 827721] |  |  | Ki (read-out: D3K1): 91 nM
44 | COc1cccc(C(=O)NC/C=C/CN2CCN(c3csc4cc(C(F)(F)F)ccc34)CC2)c1 [compound 827722] |  |  | Ki (read-out: D3K1): 59 nM
45 | O=C(NC/C=C/CN1CCN(c2csc3cc(C(F)(F)F)ccc23)CC1)c1cccc(C(F)(F)F)c1 [compound 827724] |  |  | Ki (read-out: D3K1): 120 nM
46 | O=C(COc1ccccc1)NC/C=C/CN1CCN(c2csc3cc(C(F)(F)F)ccc23)CC1 [compound 827725] |  |  | Ki (read-out: D3K1): 120 nM

Row | Compound | Ki (Table 2, read-out: D3K1) [nM] | Ki [2] [nM] | further results
47 | O=C(NC/C=C/CN1CCN(c2csc3cc(C(F)(F)F)ccc23)CC1)c1ccc(OC(F)(F)F)cc1 [compound 827726] |  |  | Ki (read-out: D3K1): 92 nM
48 | O=C(NC/C=C/CN1CCN(c2csc3cc(C(F)(F)F)ccc23)CC1)c1cc2ccccc2s1 [compound 827728] |  |  | Ki (read-out: D3K1): 16 nM
49 | O=C(NCCCCCCN1CCN(c2csc3cc(C(F)(F)F)ccc23)CC1)c1cccc(F)c1 [compound 827730] |  |  | Ki (read-out: D3K1): 2.7 nM; Ki (the 14th table, read-out: D3 Ki): 2.7 nM
50 | COc1ccc(C(=O)NC/C=C\CN2CCN(c3csc4cc(C(F)(F)F)ccc34)CC2)cc1 [compound 827734] | 37.3 |  | 
51 | COc1ccc(/C=C/C(=O)NC/C=C\CN2CCN(c3csc4cc(C(F)(F)F)ccc34)CC2)cc1 [compound 827735] | 24.4 |  | 
52 | O=C(NC/C=C\CN1CCN(c2csc3cc(C(F)(F)F)ccc23)CC1)C1(c2ccccc2)CC1 [compound 827736] | 173 |  | 
53 | CC(=O)C1CC(CC(=O)NC/C=C\CN2CCN(c3csc4cc(C(F)(F)F)ccc34)CC2)C1(C)C (centres unmarked) [compound 827737] | 108 |  | 
54 | COc1ccc(C(=O)NC/C=C/CN2CCN(c3csc4cc(C(F)(F)F)ccc34)CC2)cc1 [compound 827738] | 22.6 |  | 
55 | COc1ccc(/C=C/C(=O)NC/C=C/CN2CCN(c3csc4cc(C(F)(F)F)ccc34)CC2)cc1 [compound 827739] | 22.4 |  | 
56 | O=C(NC/C=C/CN1CCN(c2csc3cc(C(F)(F)F)ccc23)CC1)C1(c2ccccc2)CC1 [compound 827740] | 397 |  | 
57 | CC(=O)C1CC(CC(=O)NC/C=C/CN2CCN(c3csc4cc(C(F)(F)F)ccc34)CC2)C1(C)C (centres unmarked) [compound 827741] | 246 |  | 
58 | O=C(NC/C=C/CN1CCN(c2csc3cc(C(F)(F)F)ccc23)CC1)c1cc2ccccc2[nH]1 [compound 827742] | 21.3 |  | 
59 | O=C(NCCCCN1CCN(c2noc3ccsc23)CC1)c1cccc(C(F)(F)F)c1 [compound 829673] |  |  | Ki [3]: 515 nM
60 | O=C(NCCCCN1CCN(c2noc3ccsc23)CC1)c1ccc(F)cc1 [compound 829674] |  |  | Ki [3]: 90.2 nM
61 | O=C(NCCCCN1CCN(c2noc3ccsc23)CC1)c1ccc(Cl)cc1 [compound 829675] |  |  | Ki [3]: 38.9 nM
62 | O=C(NCCCCN1CCN(c2noc3ccsc23)CC1)c1ccc(C(F)(F)F)cc1 [compound 829677] |  |  | Ki [3]: 96.6 nM
63 | O=C(NCCCCN1CCN(c2noc3ccsc23)CC1)c1cc(Cl)cc(Cl)c1 [compound 829678] |  |  | Ki [3]: 275 nM
64 | O=C(NCCCCN1CCN(c2noc3ccsc23)CC1)c1ccc(-c2ccccc2)cc1 [compound 829680] |  |  | Ki [3]: 14.7 nM
65 | O=C(NCCCCN1CCN(c2noc3ccsc23)CC1)c1cc2ccccc2s1 [compound 829681] |  |  | Ki [3]: 17.7 nM
66 | O=C(NCCCCN1CCN(c2noc3ccsc23)CC1)c1cc2ccccc2[nH]1 [compound 829682] |  |  | Ki [3]: 18.9 nM
67 | O=C(NCCCCN1CCN(c2noc3ccsc23)CC1)c1ccc2[nH]ccc2c1 [compound 829683] |  |  | Ki [3]: 37.5 nM
68 | CCCCc1ccc(C(=O)NCCCCN2CCN(c3noc4ccsc34)CC2)cc1 [compound 829685] |  |  | Ki [3]: 149 nM
69 | N#Cc1ccc(C(=O)NCCCCN2CCN(c3noc4ccsc34)CC2)cc1 [compound 829686] |  |  | Ki [3]: 42.1 nM
